Measurements from patent publication US20240343855A1, “PROCESS FOR THE PREPARATION OF POLYCARBODIIMIDES WITH AZIRIDINE FUNCTIONS, WHICH MAY BE USED AS CROSSLINKING AGENT” (Stahl International B.V., priority 2021, published 2024).

Experiments:
Bscl2-GFP reporter = assay type: cell-based, mouse; conditions: 24 h exposure; in absence and presence of S9
Description: (§1) The genotoxicity can be measured by the ToxTracker® assay (Toxys, Leiden, The Netherlands) as further described herein. The ToxTracker® assay can be applied for pure substances or for compositions. The ToxTracker assay is a panel of six validated GFP-based mouse embryonic stem (mES) reporter cell lines that can be used to identify the biological reactivity and potential carcinogenic properties of newly developed compounds in a single test. ToxTracker is a mammalian stem cell-based assay that monitors activation of specific cellular signalling pathways for detection of the biological reactivity of compounds. In contrast to the cancer-derived cell lines that are currently used for in vitro genotoxicity testing, stem cells are genetically stable and proficient in all cellular pathways required for accurate detection of potentially carcinogenic properties of compounds. Extensive whole-genome transcription profiling has led to identification of a panel of biomarker genes that are preferentially activated upon exposure to different classes of carcinogens and toxicants. […] A compound is considered not genotoxic when it induces a smaller than 2-fold increase in GFP expression in any of the reporters measured by the ToxTracker® assay (Toxys, Leiden, The Netherlands).
(§2) The genotoxicity was measured by the ToxTracker® assay (Toxys, Leiden, The Netherlands), which can be applied for pure substances or for compositions. […]
(§3) The six independent mES reporter cell lines were seeded in gelatin-coated 96-well cell culture plates in 200 μl mES cell medium (50.000 cells per well). […] Induction of the GFP reporters was determined after 24 h exposure using a flow cytometer. Only GFP expression in intact single cells was determined. Mean GFP fluorescence was measured and used to calculate GFP reporter induction compared to a vehicle control treatment. Cytotoxicity was estimated by cell count after 24 h exposure using a flow cytometer and was expressed as percentage of intact cells after 24 h exposure compared to vehicle exposed controls. […]

Rtkn-GFP reporter = assay type: cell-based, mouse; conditions: 24 h exposure; in absence and presence of S9
Description: as §1, §2, §3

Btg2-GFP reporter = assay type: cell-based, mouse; conditions: 24 h exposure; in absence and presence of S9
Description: as §1, §2, §3

[1] = tested on: GFP-based mouse embryonic stem (mES) reporter cell lines; conditions: ToxTracker; positive = at least 2 fold increase in GFP expression in any reporter
Description: The genotoxicity can be measured by the ToxTracker® assay (Toxys, Leiden, The Netherlands) as further described herein. The ToxTracker® assay can be applied for pure substances or for compositions. The ToxTracker assay is a panel of six validated GFP-based mouse embryonic stem (mES) reporter cell lines that can be used to identify the biological reactivity and potential carcinogenic properties of newly developed compounds in a single test. ToxTracker is a mammalian stem cell-based assay that monitors activation of specific cellular signalling pathways for detection of the biological reactivity of compounds. […] A compound is considered not genotoxic when it induces a smaller than 2-fold increase in GFP expression in any of the reporters measured by the ToxTracker® assay (Toxys, Leiden, The Netherlands).
as §2
The six independent mES reporter cell lines were seeded in gelatin-coated 96-well cell culture plates in 200 μl mES cell medium (50.000 cells per well). […] Induction of the GFP reporters was determined after 24 h exposure using a flow cytometer. Only GFP expression in intact single cells was determined. Mean GFP fluorescence was measured and used to calculate GFP reporter induction compared to a vehicle control treatment. […]

In the case of `O=C(CCN1CC1)OCC(CO)(COC(=O)CCN1CC1)COC(=O)CCN1CC1` [CL-427, 1-Aziridinepropanoic acid, 1,1′-[2-[[3-(1-aziridinyl)-1-oxopropoxy]methyl]-2-(hydroxymethyl)-1,3-propanediyl]ester], the “activation of the Bscl2-GFP reporter” value (Bscl2-GFP reporter) is reported as “activated”, the “activation of the Rtkn-GFP reporter” value (Rtkn-GFP reporter) is reported as “activated” and the “activation of the Btg2-GFP reporter” value (Btg2-GFP reporter) is reported as “activated”. For the same molecule, the genotoxicity conclusion [1] was “considered genotoxic”.
